The test system of series [1] is MDR1 (P-gp). Briefly: BBB penetration potential, MDR1-MDCK permeability. Particulars: dog; for Papp A→B at 120 min, 5 μM: apical to basolateral, pH 7.4, read-out: BBB penetration potential MDCK A-B 10−6 cm/s; for Papp B→A at 120 min, 5 μM: basolateral to apical, pH 7.4, read-out: BBB penetration potential MDCK B-A 10−6 cm/s. Type of series: in vitro ADME. The method, then: BBB penetration potential assessment data in Table 1 was obtained as follows. MDR1-MDCK cell monolayers were grown to confluence on collagen-coated, microporous membranes in 12-well assay plates. Atenolol, propranolol and digoxin were used as control to assess plate quality. The permeability assay buffer was Hanks' balanced salt solution containing 10 mM HEPES and 15 mM glucose at a pH of 7.4. The buffer in the receiver chamber also contained 1% bovine serum albumin. The dosing solution concentration was 5 μM of test article in the assay buffer. Cell monolayers were dosed on the apical side (A-to-B) or basolateral side (B-to-A) and incubated at 37° C. with 5% CO2 in a humidified incubator. Samples were taken from the donor and receiver chambers at 120 minutes. Each determination was performed in duplicate the flux of lucifer yellow was also measured post-experimentally for each monolayer to ensure no damage was inflicted to the cell monolayers during the flux period. All samples were assayed by LC-MS/MS using electrospray ionization using a PE SCIEX API 4000 spectrometer and total run time of 1 min. Analytical method/conditions were: Liquid Chromatography Column: Waters ACQUITY UPLC BEH Phenyl 30×2.1 mm, 1.7 m; M.P. Buffer: 25 mM ammonium formate buffer, pH 3.5; Aqueous Reservoir (A): 90% water, 10% buffer; Organic Reservoir (B): 90% acetonitrile, 10% buffer; Flow Rate: 0.7 mL/minute; gradient program: 99% A (t=0 min), 1% A (t=0.65 min), 1% A (t=0.75 min), 99% A (t=0.8 min), 99% A (t=1 min); 5 μL injection volume
The apparent permeability (Papp) and percent recovery were calculated as follows: Papp=(dCr/dt)×Vr/(A×CA) (1) Percent Recovery=100×((Vr×Cr^final)+(Vd×Cd^final))/(Vd×CN) (2)
wherein: • dCr/dt is the slope of the cumulative concentration in the receiver compartment versus time in μMs^−1; • Vr is the volume of the receiver compartment in cm^3; • Vd is the volume of the donor compartment in cm^3; • A is the area of the insert (1.13 cm^2 for 12-well); • CA is the average of the nominal dosing concentration and the measured 120 minute donor concentration in μM; • CN is the nominal concentration of the dosing solution in μM; • Cr^final is the cumulative receiver concentration in μM at the end of the incubation period; • Cd^final is the concentration of the donor in μM at the end of the incubation period. Efflux ratio (ER) is defined as Papp (B-to-A)/Papp (A-to-B) Interpretation Brain Penetration Potential Classification: • Papp (A-to-B)≥3.0 and ER<3.0: High • Papp (A-to-B)≥3.0 and 10>ER≥3.0: Moderate • Papp (A-to-B)≥3.0 and ER≥10, or Papp (A-to-B)<3.0 Low

Series [2] concerns 20-HETE formation (CYP4) in RKM. Put plainly: Inhibition of 20-HETE formation at 250 or 500 nM in RKM microsomal incubations. The following applies: RKM 300 μg/ml; for RKM % inh. @ 500 nM: 500 nM compound; for RKM % inh. @ 250 nM: 250 nM compound. The class given is biochemical, rat. An outline of the steps:
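Protein 300 μg/ml (microsomes) / 25 pmol/mL (rCYP4F2); AA 100 μM; NADPH 1 mM start; KPi 0.12 M + 5 mM MgCl2; 20 min, 37° C. Read-out: 20-HETE by UPLC-MS/MS (d6 IS), % of vehicle, n=3.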

`COc1ccc(C2CCN(c3cn[nH]c3)CC2)cc1` [Compound 20, 4-(4-Methoxyphenyl)-1-(1H-pyrazol-4-yl)piperidine]: in series [1], the Papp A→B at 120 min, 5 μM stood at 32 ×10⁻⁶ cm/s and the Papp B→A at 120 min, 5 μM worked out at 25.7 ×10⁻⁶ cm/s. Also, in series [2], the “RKM % inh. @ 500 nM” value was determined as 4.90%.
The matching figures for `c1ccc(CC2CCN(c3cn[nH]c3)CC2)cc1` [Compound 3, 4-Benzyl-1-(1H-pyrazol-4-yl)piperidine]: 62 ×10⁻⁶ cm/s, 60 ×10⁻⁶ cm/s and 0.00%.
On to `Clc1ccc(CC2CCN(c3cn[nH]c3)CC2)cc1` [Compound 93, 4-(4-Chlorobenzyl)-1-(1H-pyrazol-4-yl)piperidine], for which, in series [1], the Papp A→B at 120 min, 5 μM came to 44.3 ×10⁻⁶ cm/s and the Papp B→A at 120 min, 5 μM is 40 ×10⁻⁶ cm/s.
In the case of `O=C1CCCN1Cc1ccc(C2CCN(c3cn[nH]c3)CC2)cc1` [Compound 83, 1-(4-(1-(1H-Pyrazol-4-yl)piperidin-4-yl)benzyl)pyrrolidin-2-one], in series [1], the Papp A→B at 120 min, 5 μM is 5.16 ×10⁻⁶ cm/s and the Papp B→A at 120 min, 5 μM was determined as 41.6 ×10⁻⁶ cm/s.
For `c1ccc(C2CCN(c3cn[nH]c3)CC2)cc1` [Compound 1, 4-Phenyl-1-(1H-pyrazol-4-yl)piperidine], the “RKM % inh. @ 250 nM” value in series [2] came out at 18.00%.
Turning to `O=C1CCCN1c1ccc(C2CCN(c3cn[nH]c3)CC2)cc1` [Compound 100, 1-(4-(1-(1H-Pyrazol-4-yl)piperidin-4-yl)phenyl)pyrrolidin-2-one], in series [1], the Papp A→B at 120 min, 5 μM turned out to be 22.2 ×10⁻⁶ cm/s and the Papp B→A at 120 min, 5 μM turned out to be 46.9 ×10⁻⁶ cm/s.
As for `COc1ccc(C2CCN(c3ccn[nH]3)CC2)cc1` [Compound 19, 4-(4-Methoxyphenyl)-1-(1H-pyrazol-5-yl)piperidine], the “RKM % inh. @ 500 nM” value in series [2] was 0.00%.
On to `CC(=O)N(C)c1ccc(C2CCN(c3cn[nH]c3)CC2)cc1` [Compound 28, N-(4-(1-(1H-Pyrazol-4-yl)piperidin-4-yl)phenyl)-N-methylacetamide], for which, in series [1], the Papp A→B at 120 min, 5 μM turned out to be 18.4 ×10⁻⁶ cm/s and the Papp B→A at 120 min, 5 μM was 40.2 ×10⁻⁶ cm/s. Moreover, the “RKM % inh. @ 500 nM” value in series [2] stood at 43.00%.
In the case of `c1ccc(C2CCN(c3ccn[nH]3)CC2)cc1` [Compound 54, 4-Phenyl-1-(1H-pyrazol-5-yl)piperidine], the “RKM % inh. @ 250 nM” value in series [2] is recorded as 0.00%.
In the case of `Cc1cccc(C2CCN(c3cn[nH]c3)CC2)c1` [Compound 34, 1-(1H-Pyrazol-4-yl)-4-(m-tolyl)piperidine], in series [1], the Papp A→B at 120 min, 5 μM came to 60.1 ×10⁻⁶ cm/s and the Papp B→A at 120 min, 5 μM came out at 48.6 ×10⁻⁶ cm/s. Besides, the “RKM % inh. @ 500 nM” value in series [2] is listed as 36.00%.

Source of the values: patent publication US12479816B2, “20-HETE formation inhibitors” (UNIVERSITY OF PITTSBURGH—OF THE COMMONWEALTH SYSTEM OF …, priority 2019, dated 2025).
